Assay [1] has as its target T1, Serine/threonine-protein kinase B-raf (Homo sapiens, UniProt P15056).
Description: Binding affinity at bRaf kinase in fluorescent ligand displacement assay
Assay [2] addresses T1, Serine/threonine-protein kinase B-raf. The source holds these as a separate data set.
Description: Inhibition bRaf kinase activity
The target of assay [3] is Mitogen-activated protein kinase 13 (Homo sapiens) (UniProt O15264). Kind of assay: Inhibition of p38delta MAPK activity at 10 uM.
Assay [4] addresses MAP kinase-activated protein kinase 5 (Homo sapiens) (UniProt Q8IW41). Kind of assay: Inhibition of PRAK activity at 10 uM.
Assay [5] addresses MAP kinase-activated protein kinase 2 (Homo sapiens) (UniProt P49137). In words: Inhibition of MAPKAPK2 activity at 10 uM.
In assay [6] the target is Ribosomal protein S6 kinase (P70S6K) (Homo sapiens) (UniProt Q9UBS0+P23443). In words: Inhibition of p70S6K activity at 10 uM. In kind it is protein-complex assay.
Assay [7] has as its target Serine/threonine-protein kinase Sgk1 (Homo sapiens) (UniProt O00141). In words: Inhibition of SGK activity at 10 uM.
Assay [8] has as its target Tyrosine-protein kinase Lck (Homo sapiens) (UniProt P06239). In words: Inhibition of Lck activity at 10 uM.
Assay [9] has as its target Phosphorylase kinase (Homo sapiens) (UniProt P15735+P46020+P46019+Q93100+Q16816). In words: Inhibition of phosphorylase kinase activity at 10 uM. It counts as protein-complex assay.
Assay [10] deals with Ribosomal protein S6 kinase alpha-5 (Homo sapiens) (UniProt O75582). Kind of assay: Inhibition of MSK1 activity at 10 uM.
For assay [11], the target named is Glycogen synthase kinase-3 beta (Homo sapiens) (UniProt P49841). In words: Inhibition of GSK3-beta activity at 10 uM.
Assay [12] deals with Casein kinase II (Homo sapiens) (UniProt P67870+P68400+P19784). In words: Inhibition of CK2 activity at 10 uM. In kind it is protein-complex assay.
Assay [13] deals with RAC-alpha serine/threonine-protein kinase (Homo sapiens) (UniProt P31749). Kind of assay: Inhibition of PKBalpha activity at 10 uM.
Assay [14] addresses Rho-associated protein kinase 2 (Homo sapiens) (UniProt O75116). Kind of assay: Inhibition of ROCK2 activity at 10 uM.
Assay [15] has as its target Dual specificity mitogen-activated protein kinase kinase 1 (Homo sapiens) (UniProt Q02750). In words: Inhibition of MEK1 activity at 10 uM.
Assay [16] has as its target Protein kinase C alpha type (Homo sapiens) (UniProt P17252). In words: Inhibition of PKCalpha activity at 10 uM.
Assay [17] concerns the target Mitogen-activated protein kinase 12 (Homo sapiens) (UniProt P53778). Kind of assay: Inhibition of p38-gamma MAPK activity at 10 uM.
Assay [18] addresses Mitogen-activated protein kinase 11 (Homo sapiens) (UniProt Q15759). In words: Inhibition of p38-beta MAPK activity at 10 uM.
Assay [19] has as its target Serine/threonine-protein kinase Chk1 (Homo sapiens) (UniProt O14757). Kind of assay: Inhibition of CHK1 activity at 10 uM.
The target of assay [20] is Mitogen-activated protein kinase 1 (Homo sapiens) (UniProt P28482). In words: Inhibition of MAPK2 activity at 10 uM.
Assay [21] addresses AMP-activated protein kinase, AMPK (Homo sapiens) (UniProt P54646+O43741+P54619+Q9UGJ0+Q9Y478+Q13131+Q9UGI9). In words: Inhibition of AMPK activity at 10 uM. It counts as protein-complex assay.
Assay [22] deals with Mitogen-activated protein kinase 8 (Homo sapiens) (UniProt P45983). Kind of assay: Inhibition of JNK1 activity at 10 uM.
Assay [23] concerns the target cAMP-dependent protein kinase (PKA) (Homo sapiens) (UniProt P22694+P17612+P22612). In words: Inhibition of PKA activity at 10 uM. In kind it is protein assay.

The structures appear in SMILES notation. pIC50, pKd: −log10 of the molar value. Some results are limits rather than exact numbers.

T1 sequence (P15056 whole entry): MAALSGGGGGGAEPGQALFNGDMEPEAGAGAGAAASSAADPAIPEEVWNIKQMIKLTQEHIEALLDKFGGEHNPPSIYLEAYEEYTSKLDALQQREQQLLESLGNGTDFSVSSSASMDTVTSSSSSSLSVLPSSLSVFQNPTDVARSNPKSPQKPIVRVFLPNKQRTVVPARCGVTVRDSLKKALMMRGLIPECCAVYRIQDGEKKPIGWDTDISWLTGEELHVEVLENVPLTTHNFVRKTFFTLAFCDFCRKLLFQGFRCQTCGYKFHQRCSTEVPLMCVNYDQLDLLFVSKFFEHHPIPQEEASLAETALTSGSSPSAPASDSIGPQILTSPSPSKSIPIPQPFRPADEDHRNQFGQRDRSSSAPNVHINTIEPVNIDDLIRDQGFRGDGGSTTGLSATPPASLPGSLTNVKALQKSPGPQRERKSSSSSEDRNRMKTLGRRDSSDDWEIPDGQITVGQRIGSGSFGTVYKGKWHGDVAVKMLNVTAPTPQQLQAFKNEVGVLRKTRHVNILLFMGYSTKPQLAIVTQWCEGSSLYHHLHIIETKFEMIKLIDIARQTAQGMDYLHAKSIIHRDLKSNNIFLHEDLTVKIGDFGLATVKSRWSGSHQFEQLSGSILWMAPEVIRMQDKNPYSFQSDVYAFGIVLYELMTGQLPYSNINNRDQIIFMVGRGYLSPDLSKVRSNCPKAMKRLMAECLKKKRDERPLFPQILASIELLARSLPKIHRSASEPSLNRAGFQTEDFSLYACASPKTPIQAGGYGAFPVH
Chain of Glycogen synthase kinase-3 beta (Homo sapiens) (P49841 whole entry, looked up): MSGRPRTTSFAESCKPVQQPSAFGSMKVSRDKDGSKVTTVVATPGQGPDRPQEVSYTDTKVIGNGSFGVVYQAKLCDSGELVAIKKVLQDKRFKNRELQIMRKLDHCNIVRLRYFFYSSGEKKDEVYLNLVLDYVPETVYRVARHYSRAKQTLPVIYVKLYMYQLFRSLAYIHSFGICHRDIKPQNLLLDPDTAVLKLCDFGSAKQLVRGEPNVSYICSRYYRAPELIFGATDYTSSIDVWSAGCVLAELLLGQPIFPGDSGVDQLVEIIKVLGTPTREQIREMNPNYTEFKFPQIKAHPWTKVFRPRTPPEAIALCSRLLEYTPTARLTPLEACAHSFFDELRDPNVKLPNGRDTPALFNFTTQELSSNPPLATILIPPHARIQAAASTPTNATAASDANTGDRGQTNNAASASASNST
Chain of Ribosomal protein S6 kinase alpha-5 (Homo sapiens) (O75582 whole entry, looked up): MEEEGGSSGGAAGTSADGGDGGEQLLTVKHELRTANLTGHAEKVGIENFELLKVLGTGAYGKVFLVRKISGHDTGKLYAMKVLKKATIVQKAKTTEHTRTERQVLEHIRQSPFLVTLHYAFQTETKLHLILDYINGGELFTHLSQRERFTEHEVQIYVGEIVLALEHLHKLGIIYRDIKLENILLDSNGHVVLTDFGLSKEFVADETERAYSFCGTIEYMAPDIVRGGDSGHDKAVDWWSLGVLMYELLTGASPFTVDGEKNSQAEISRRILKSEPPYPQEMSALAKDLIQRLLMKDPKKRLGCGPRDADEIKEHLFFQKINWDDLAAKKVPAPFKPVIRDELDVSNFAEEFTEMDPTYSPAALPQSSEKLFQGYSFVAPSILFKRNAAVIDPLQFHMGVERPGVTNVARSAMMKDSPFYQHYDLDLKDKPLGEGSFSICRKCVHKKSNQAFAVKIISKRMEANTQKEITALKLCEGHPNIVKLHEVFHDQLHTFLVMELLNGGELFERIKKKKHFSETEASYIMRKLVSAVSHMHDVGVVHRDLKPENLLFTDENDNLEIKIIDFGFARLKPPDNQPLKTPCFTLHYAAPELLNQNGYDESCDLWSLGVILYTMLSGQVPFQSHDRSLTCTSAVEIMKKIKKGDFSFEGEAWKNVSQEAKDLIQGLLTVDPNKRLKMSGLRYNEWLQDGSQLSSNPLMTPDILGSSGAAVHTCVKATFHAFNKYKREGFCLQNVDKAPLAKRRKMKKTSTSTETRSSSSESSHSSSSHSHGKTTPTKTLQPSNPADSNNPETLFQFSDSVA
Chain of Mitogen-activated protein kinase 8 (Homo sapiens) (P45983 whole entry): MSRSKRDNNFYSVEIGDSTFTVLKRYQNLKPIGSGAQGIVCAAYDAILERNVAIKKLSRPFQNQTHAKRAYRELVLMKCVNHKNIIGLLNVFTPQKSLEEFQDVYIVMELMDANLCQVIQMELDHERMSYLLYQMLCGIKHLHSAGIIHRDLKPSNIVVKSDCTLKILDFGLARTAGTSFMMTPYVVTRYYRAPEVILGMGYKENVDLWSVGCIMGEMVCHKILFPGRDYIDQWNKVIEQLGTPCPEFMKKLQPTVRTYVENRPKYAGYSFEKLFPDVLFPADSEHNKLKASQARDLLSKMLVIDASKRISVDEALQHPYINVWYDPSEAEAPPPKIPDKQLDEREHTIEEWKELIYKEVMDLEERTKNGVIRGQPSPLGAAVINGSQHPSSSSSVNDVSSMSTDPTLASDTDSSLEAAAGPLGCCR
Chain of RAC-alpha serine/threonine-protein kinase (Homo sapiens) (P31749 whole entry): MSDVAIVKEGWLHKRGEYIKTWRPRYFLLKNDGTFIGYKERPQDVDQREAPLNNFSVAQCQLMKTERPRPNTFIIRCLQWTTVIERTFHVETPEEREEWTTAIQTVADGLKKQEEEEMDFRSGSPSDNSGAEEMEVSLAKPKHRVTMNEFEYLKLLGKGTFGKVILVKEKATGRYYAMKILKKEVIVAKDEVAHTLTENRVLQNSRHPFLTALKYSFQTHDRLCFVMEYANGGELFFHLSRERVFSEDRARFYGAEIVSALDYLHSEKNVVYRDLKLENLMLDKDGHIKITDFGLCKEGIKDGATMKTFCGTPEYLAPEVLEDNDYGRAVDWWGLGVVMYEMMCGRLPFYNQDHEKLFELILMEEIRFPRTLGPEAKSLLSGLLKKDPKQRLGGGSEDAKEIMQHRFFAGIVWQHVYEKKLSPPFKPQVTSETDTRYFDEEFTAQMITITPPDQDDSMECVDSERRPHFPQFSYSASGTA
Chain of MAP kinase-activated protein kinase 5 (Homo sapiens) (Q8IW41 whole entry): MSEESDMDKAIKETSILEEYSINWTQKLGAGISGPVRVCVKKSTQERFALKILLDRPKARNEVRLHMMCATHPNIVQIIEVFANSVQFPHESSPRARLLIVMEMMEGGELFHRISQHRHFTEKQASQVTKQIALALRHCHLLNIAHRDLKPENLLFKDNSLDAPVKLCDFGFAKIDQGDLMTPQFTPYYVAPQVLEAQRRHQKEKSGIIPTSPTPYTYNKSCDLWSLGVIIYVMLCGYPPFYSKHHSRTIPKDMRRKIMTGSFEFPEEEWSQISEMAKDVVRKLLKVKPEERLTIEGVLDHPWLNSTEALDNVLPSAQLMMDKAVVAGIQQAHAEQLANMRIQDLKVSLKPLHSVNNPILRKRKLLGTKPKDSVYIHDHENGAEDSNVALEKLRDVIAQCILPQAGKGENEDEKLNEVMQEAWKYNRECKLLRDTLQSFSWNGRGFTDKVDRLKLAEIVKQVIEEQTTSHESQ
Chain of Rho-associated protein kinase 2 (Homo sapiens) (O75116 whole entry, looked up): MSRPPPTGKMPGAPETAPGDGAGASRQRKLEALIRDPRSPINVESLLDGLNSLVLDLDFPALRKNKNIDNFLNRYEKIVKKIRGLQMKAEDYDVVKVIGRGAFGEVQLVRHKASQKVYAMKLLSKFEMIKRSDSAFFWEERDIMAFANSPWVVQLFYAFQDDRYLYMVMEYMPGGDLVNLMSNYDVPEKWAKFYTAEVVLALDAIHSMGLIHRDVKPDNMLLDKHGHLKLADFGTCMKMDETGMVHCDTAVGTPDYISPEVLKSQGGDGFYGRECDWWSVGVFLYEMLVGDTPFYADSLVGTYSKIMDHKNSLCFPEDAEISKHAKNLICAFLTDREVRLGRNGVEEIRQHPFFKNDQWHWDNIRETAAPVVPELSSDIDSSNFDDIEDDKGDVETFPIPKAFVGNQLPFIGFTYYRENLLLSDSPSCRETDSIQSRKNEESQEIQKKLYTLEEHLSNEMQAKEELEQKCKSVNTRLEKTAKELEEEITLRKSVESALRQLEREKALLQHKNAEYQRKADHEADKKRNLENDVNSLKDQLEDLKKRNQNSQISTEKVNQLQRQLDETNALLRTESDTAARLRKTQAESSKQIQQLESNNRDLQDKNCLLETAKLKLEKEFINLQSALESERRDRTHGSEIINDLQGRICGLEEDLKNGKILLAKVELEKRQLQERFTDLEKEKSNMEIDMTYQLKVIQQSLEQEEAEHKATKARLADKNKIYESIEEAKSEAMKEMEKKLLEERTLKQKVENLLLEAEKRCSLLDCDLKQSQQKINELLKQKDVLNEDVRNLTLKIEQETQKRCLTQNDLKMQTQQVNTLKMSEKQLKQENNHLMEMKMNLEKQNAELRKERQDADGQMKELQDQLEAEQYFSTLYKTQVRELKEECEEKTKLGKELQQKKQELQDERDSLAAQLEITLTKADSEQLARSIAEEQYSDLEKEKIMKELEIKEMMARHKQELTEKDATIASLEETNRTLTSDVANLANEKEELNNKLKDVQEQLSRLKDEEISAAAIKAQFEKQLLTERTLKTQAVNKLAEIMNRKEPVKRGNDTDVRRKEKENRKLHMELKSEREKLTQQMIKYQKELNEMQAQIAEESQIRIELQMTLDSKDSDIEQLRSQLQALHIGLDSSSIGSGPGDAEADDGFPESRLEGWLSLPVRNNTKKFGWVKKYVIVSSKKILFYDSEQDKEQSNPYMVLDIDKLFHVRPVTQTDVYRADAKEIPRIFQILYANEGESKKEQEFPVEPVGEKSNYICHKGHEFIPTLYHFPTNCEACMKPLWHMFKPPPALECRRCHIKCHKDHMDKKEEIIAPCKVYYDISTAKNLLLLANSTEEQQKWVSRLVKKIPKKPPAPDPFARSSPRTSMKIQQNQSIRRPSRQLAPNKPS

As for `CN(C)CCCNC(=O)c1nc(-c2ccncc2)c(-c2ccc(Cl)c(O)c2)[nH]1`, the pKd in assay [1] was 7.62. In assay [2], this compound showed a pIC50 of 7.40.

Turning to `CC(C)(CNC(=O)Nc1ccc(Cl)cc1)c1nc(-c2ccc(Cl)c(O)c2)c(-c2ccncc2)[nH]1`, in [1], the pKd is 7.68. The pIC50 in assay [2] was 7.89.

Consider `COc1cccc(-c2nc(-c3ccccc3)[nH]c2-c2ccncc2)c1`, for which, in assay [1], the pKd is below 6.71.

For `Oc1cc(-c2[nH]c(-c3cccnc3)nc2-c2ccncc2)ccc1Cl`, in [2], the pIC50 is 8.22.

With `OCc1ccc(-c2[nH]c(-c3ccccc3)nc2-c2ccncc2)cc1Cl`, in assay [1], the pKd was 6.88.

On to `Oc1cc(-c2[nH]c(-c3ccco3)nc2-c2ccncc2)ccc1Cl`, for which the pKd in [1] was 8.38. This compound also showed a negative-log IC50 (pIC50) in [2] of 7.89.

Consider `OCc1ccc(-c2[nH]c(-c3ccccc3)nc2-c2ccncc2)cc1O`, for which the pKd in assay [1] is 7.66.

Take `O/N=C/c1ccc(-c2[nH]c(-c3ccccc3)nc2-c2ccncc2)cc1`: the pKd in assay [1] was 8.30. Against the preceding compound, the pKd is 0.64 log units higher.

Turning to `Oc1cc(-c2[nH]c(-c3ccccc3)nc2-c2ccnnc2)ccc1Cl`, the pKd in [1] is 7.06.

`Oc1cccc(-c2nc(-c3ccccc3)[nH]c2-c2ccncc2)c1` gave a pKd in assay [1] of 8.10.

Regarding `Oc1ccc(-c2nc(-c3ccccc3)[nH]c2-c2ccncc2)cc1`, the pKd in [1] was 6.50. Also, the pIC50 in assay [2] was 6.47.

For `Oc1cc(-c2[nH]c(-c3ccccc3)nc2-c2ccncn2)ccc1Cl`, the pKd in assay [1] was 7.85.

`N=C(NO)c1ccc(-c2[nH]c(-c3ccccc3)nc2-c2ccncc2)cc1`: the pKd in assay [1] was 7.28.

For the compound `O/N=C1/CCCc2cc(-c3[nH]c(-c4ccccc4)nc3-c3ccncc3)ccc21`, the pKd in [1] was 7.77.

Take `OC1CCc2cc(-c3[nH]c(-c4ccccc4)nc3-c3ccncc3)ccc21` (stereo not given): the pKd in assay [1] is below 6.70.

`Oc1cc(-c2[nH]cnc2-c2ccncc2)ccc1Cl`: the negative logarithm of the Kd (pKd) in assay [1] was 7.41. For the same compound, the pIC50 in assay [2] was 7.48.

Consider `CC(C)(CN)c1nc(-c2ccc(Cl)c(O)c2)c(-c2ccncc2)[nH]1`, for which the negative logarithm of the Kd (pKd) in [1] was 8.32. The pIC50 in assay [2] was 8.22.

Consider `CN(C)CCOc1ccc(-c2nc(-c3ccncc3)c(-c3ccc4c(c3)CC/C4=N\O)[nH]2)cc1`, for which the inhibition stood at 10% in [3]; 18% in [4]; 9% in assay [5]; 13% in [6]; 17% in [7]; 39% in assay [8]. Besides, the inhibition in assay [9] is 3%; in assay [10], 38%; in assay [11] it was 25%; in [12], 8%; in assay [13], 8%; in assay [14] it was 26%. Also, the inhibition was determined as 14% in assay [15]; 10% in [16]; 10% in assay [17]; 9% in assay [18]; 9% in assay [19]; 11% in [20]. For the same compound, the results for the inhibition in [21], in [22] and in assay [23] were 14%, 19% and -2%, respectively.

Take `Nc1nccc(-c2[nH]c(-c3ccccc3)nc2-c2ccc(Cl)c(O)c2)n1`: the pKd in assay [1] is 8.24.

For the compound `Oc1cc(-c2[nH]c(-c3ccccc3)nc2-c2ccccc2)ccc1Cl`, the pKd in [1] is below 6.70.

With `O/N=C/c1ccc(-c2[nH]c(-c3ccccc3)nc2-c2ccncc2)cc1O`, in [1], the pKd is 7.57.

`O/N=C/c1ccc(-c2[nH]c(-c3ccccc3)nc2-c2ccncc2)cc1Cl` had a pKd in [1] of 8.22.

Take `CC(C)(CNS(C)(=O)=O)c1nc(-c2ccc(Cl)c(O)c2)c(-c2ccncc2)[nH]1`: the pKd in assay [1] was 8.00. The compound further had a pIC50 in assay [2] of 7.85.

In turn, `OCc1ccc(-c2[nH]c(-c3ccccc3)nc2-c2ccncc2)cc1` showed a negative-log Kd (pKd) in [1] of 7.15.

As to `CC(C)(C)c1nc(-c2ccncc2)c(-c2ccc(F)cc2)[nH]1`, the pIC50 in [2] was 6.05.

Regarding `Oc1cc(-c2[nH]c(-c3ccccc3)nc2-c2cccnc2)ccc1Cl`, in [1], the pKd was below 6.70.

`CC(C)(C)c1nc(-c2ccncc2)c(-c2ccc(Cl)c(O)c2)[nH]1` gave a negative-log Kd (pKd) in [1] of 8.70. Also, in assay [2], the pIC50 was 7.92.

`C/C(=N\O)c1ccc(-c2[nH]c(-c3ccccc3)nc2-c2ccncc2)cc1`: the pKd in assay [1] is 7.96.

As to `OCc1cccc(-c2[nH]c(-c3ccccc3)nc2-c2ccncc2)c1`, the pKd in assay [1] is below 6.71. This compound also had a pIC50 in [2] of 5.80.

Regarding `Oc1cc(-c2nc(-c3ccccc3)[nH]c2-c2ccncc2)ccc1Cl`, the inhibition in assay [4] is 19%; in assay [5], -1%; in assay [6], 26%; in [7], 2%; in [8], 88%; in assay [9] it was 17%. Besides, the inhibition in assay [10] was 7%; in assay [11], 83%; in [12], -3%; in [13], 44%; in assay [14] it was 3%; in assay [15], 5%. In addition, the inhibition in assay [16] is 2%; in [17], 5%; in assay [18], 81%; in assay [19] it was 1%; in assay [20], -3%; in [21] it was 12%. Moreover, the values for the inhibition in assay [22] and in [23] were 0% and 12%, respectively. The same compound gave a pKd in assay [1] of 8.62. For the same compound, the pIC50 in [2] was 8.00.

These data come from ChEMBL document CHEMBL1147772, “The identification of potent and selective imidazole-based inhibitors of B-Raf kinase” (Bioorg Med Chem Lett, 2006).
